Here are results for 2 compounds from patent US20120302609A1, “Pyrazolines for the Modulation of PKM2” (Dynamix Pharmaceuticals LTD., priority 2011, published 2012).

Series [1] deals with H1299 (Non-small cell lung carcinoma cell line). Briefly: Cell proliferation, Assay Protocol I (CellTiter-Glo). Conditions: Homo sapiens, NCI-H1299, 96 total hours of culture. It is filed as cell-based. The protocol: (§1) Growth inhibitory activity against the human tumor cell lines was determined using Promega's CellTiter-Glo® assay. The cell lines of interest were placed in a 96-well microculture plate (Costar® white, flat bottom #3917) in a total volume of 90 μL/well. After 24 hours of incubation in a humidified incubator at 37° C. with 5% CO2 and 95% air, 10 μL of serially diluted test compounds in growth medium were added to each well. After 96 total hours of culture in a CO2 incubator, the plated cells and CellTiter-Glo® (Promega # G7571) reagents were brought to room temperature to equilibrate for 30 minutes. 100 μL of CellTiter-Glo® reagent was added to each well. The plate was shaken for 2 minutes and then left to equilibrate for 10 minutes before reading luminescence on the Tecan GENios microplate reader.
(§2) Percent inhibition of cell growth was calculated relative to untreated control wells. All tests were performed in duplicate for each concentration level. The IC50 value for the test compounds was estimated using Prism 3.03 by curve-fitting the data.

Series [2] deals with SW480 (Colorectal cancer cell line). The series is described as above. It is filed as cell-based. Conditions: Homo sapiens. On the procedure:
as §1, §2

The test system of the next series is BT-474 (Breast). In words: Cell proliferation assay (CellTiter-Glo Luminescent). It is filed as cell-based. Conditions: Homo sapiens, Complete media, 96 hr.
In another series the test system is DU145 (prostate). The series is described as above. It is filed as cell-based. Conditions: Homo sapiens, DU-145, Complete media, 96 hr.
Series [3] is described as follows: H1299 nude mouse xenograft study, toxicity (body weight, deaths, organ weights). Format: in vivo, mice. The note with it: mouse, in vivo, ip; for Deaths NTR: female, nude (nu/nu). The protocol:
The animals were fed ad libitum water (reverse osmosis, 1 ppm Cl) and NIH 31 Modified and Irradiated Lab Diet® consisting of 18.0% crude protein, 5.0% crude fat, and 5.0% crude fiber. The mice were housed on irradiated Enrich-o′ Cobs™ Laboratory Animal Bedding in static microisolators on a 12-hour light cycle at 20-22° C. (68-72° F.) and 40-60% humidity.
Dosing began on D1 in four groups of mice (n=12/group in Groups 1, 3, and 4; n=6 in Group 2). XT26 and its vehicle were administered intraperitoneally (i.p.) twice daily for 28 days (b.i.d.×28), starting with the p.m. dose on D1 and ending with the a.m. dose on D29. Gemcitabine was administered i.p. once daily at three-day intervals for four doses (q3d×4). In all groups, the dosing volume of 10 ml/kg (0.2 ml/20 g mouse) was scaled to the weight of each individual animal, as measured twice weekly.
Group 1 mice received the XT26 vehicle b.i.d.×28, and served as the controls for the study. Group 2 received gemcitabine at 120 mg/kg. Group 3 was to receive XT26 at 100 mg/kg b.i.d.×28; on D21, four mice (Animals 1, 3, 4, and 5) erroneously received 200 mg/kg XT26 for their a.m. dose. Group 4 was to receive XT26 at 200 mg/kg b.i.d.×28, but dosing stopped on D9 (b.i.d.×8) because of toxicity. Group 4 dosing at 200 mg/kg resumed on D17 on a qd (once daily)×13 dosing schedule. Because of a scheduling error, the D19 dose for Group 4 mice was omitted; qd dosing occurred on Days 17, 18, and 20-28.
Animals were weighed daily on D1-5, then twice weekly until the completion of the study. The mice were observed frequently for overt signs of any adverse, treatment-related side effects.
On D10, both kidneys and the liver were harvested from each euthanized Group 4 animal. Each organ was weighed separately, fixed overnight in 10% neutral buffered formalin, and transferred to 70% ethanol.

The structures appear in SMILES notation.

In the case of `CCS(=O)(=O)Nc1ccc(C2=NN(C(C)=O)C(c3ccc(OC)cc3)C2)cc1` (racemic) [Compound 1A, N-(4-(1-acetyl-5-(4-methoxyphenyl)-4,5-dihydro-1H-pyrazol-3-yl)phenyl)ethanesulfonamide], the IC50 in series [1] and in series [2] was 40 to 100 µM in each case.

For `COc1ccc([C@@H]2CC(c3ccc(NS(=O)(=O)c4ccc(F)cc4)cc3)=NN2C(C)=O)cc1` [Compound 13A, (S)—N-(4-(1-acetyl-5-(4-methoxyphenyl)-4,5-dihydro-1H-pyrazol-3-yl)phenyl)-4-fluorobenzenesulfonamide], the concentration at half-maximal activity (AC50) in the series on BT-474 (Breast) and in the series with DU145 (prostate) was 10 to 20 µM in each case. The “Deaths NTR” value in series [3] (100 mg/kg, 28 days) is 0; in series [3] (200 mg/kg), 0. Also, the “Mean BW Nadir” value in series [3] (200 mg/kg) is listed as −13.6%.
